Reference: ChEMBL document CHEMBL1137556, “Synthetic studies of neoclerodane diterpenes from Salvia divinorum: exploration of the 1-position” (Bioorg Med Chem Lett, 2007)

Tests used:
[1] = target: T1, Kappa-type opioid receptor (Homo sapiens, UniProt P41145)
Description: Antagonist activity at human cloned kappa opioid receptor assessed as inhibition of DAMGO-stimulated [35S]GTP-gamma-S binding

[2] = target: Delta-type opioid receptor (Homo sapiens) (UniProt P41143)
Description: Antagonist activity at human cloned delta opioid receptor assessed as inhibition of DPDPE-stimulated [35S]GTPgammaS binding

[3] = target: T1, Kappa-type opioid receptor; remark: listed apart in the source
Description: Antagonist activity at human cloned kappa opioid receptor assessed as inhibition of U69,593-stimulated [35S]GTP-gamma-S binding

[4] = target: T1, Kappa-type opioid receptor; experiment: Efficacy at human kappa opioid receptor by [35S]GTPgammaS binding assay relative to U69,593; assay type: functional
[5] = target: T1, Kappa-type opioid receptor; experiment: Agonist activity at human kappa opioid receptor by [35S]GTPgammaS binding assay; assay type: functional
[6] = target: T1, Kappa-type opioid receptor; experiment: Agonist activity at human kappa opioid receptor assessed as inhibition of Galpha-16-induced calcium flux; assay type: functional
[7] = target: T1, Kappa-type opioid receptor; experiment: Efficacy at human kappa opioid receptor assessed as inhibition of Galpha-16-induced calcium flux relative to U69,593; assay type: functional

Chain of Delta-type opioid receptor (Homo sapiens) (P41143 whole entry): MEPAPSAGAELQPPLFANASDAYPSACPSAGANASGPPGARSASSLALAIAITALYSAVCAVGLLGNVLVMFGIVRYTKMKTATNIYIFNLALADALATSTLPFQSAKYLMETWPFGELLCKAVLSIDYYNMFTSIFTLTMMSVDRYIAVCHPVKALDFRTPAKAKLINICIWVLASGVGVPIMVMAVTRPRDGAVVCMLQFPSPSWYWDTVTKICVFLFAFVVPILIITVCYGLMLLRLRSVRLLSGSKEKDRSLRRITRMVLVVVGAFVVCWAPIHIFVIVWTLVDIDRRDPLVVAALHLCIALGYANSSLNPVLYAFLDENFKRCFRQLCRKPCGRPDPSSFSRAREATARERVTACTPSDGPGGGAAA
T1 sequence (P41145 whole entry): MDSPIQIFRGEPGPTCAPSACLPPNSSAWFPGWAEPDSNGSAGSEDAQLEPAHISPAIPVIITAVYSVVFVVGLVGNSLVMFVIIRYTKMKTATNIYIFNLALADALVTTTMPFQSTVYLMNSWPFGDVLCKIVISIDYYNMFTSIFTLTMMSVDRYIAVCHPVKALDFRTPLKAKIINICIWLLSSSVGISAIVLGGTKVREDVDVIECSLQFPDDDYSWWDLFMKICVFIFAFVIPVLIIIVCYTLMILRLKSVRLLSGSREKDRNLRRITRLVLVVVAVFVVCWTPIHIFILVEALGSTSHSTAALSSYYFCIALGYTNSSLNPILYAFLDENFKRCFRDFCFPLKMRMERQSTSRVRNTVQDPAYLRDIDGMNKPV

SMILES | Ke [1] [nM] | Ke [2] [nM] | Ke [3] [nM] | Emax [4] [%] | EC50 [5] [µM] | EC50 [6] [µM] | Emax [7] [%]
COC(=O)[C@@H]1C[C@H](OC(=O)c2ccccc2)C=C2[C@@]1(C)CC[C@H]1C(=O)O[C@H](c3ccoc3)C[C@]21C | 1740 | 2300 | 580 | – | – | – | –
COC(=O)[C@@H]1C[C@H](OC(C)=O)[C@H](OS(C)(=O)=O)[C@H]2[C@@]1(C)CC[C@H]1C(=O)O[C@H](c3ccoc3)C[C@]21C [1-ALPHA-MESYLOXYSALVINORIN A] | – | – | – | 95 | 2.7 | – | –
COC(=O)[C@@H]1C[C@H](OC(C)=O)C[C@H]2[C@@]1(C)CC[C@H]1C(=O)O[C@H](c3ccoc3)C[C@]21C | 170 | 100 | – | 49 | 0.28 | 0.00334 | 93
COC(=O)[C@@H]1C[C@H](OC(=O)c2ccccc2)[C@H](O)[C@H]2[C@@]1(C)CC[C@H]1C(=O)O[C@H](c3ccoc3)C[C@]21C | 1830 | 2900 | 1050 | – | – | – | –
COC(=O)[C@@H]1C[C@H](OC(C)=O)[C@H](O)[C@H]2[C@@]1(C)CC[C@H]1C(=O)O[C@H](c3ccoc3)C[C@]21C | 2300 | 1790 | 240 | – | – | – | –
COC(=O)[C@@H]1C[C@H](OC(=O)c2ccccc2)C[C@H]2[C@@]1(C)CC[C@H]1C(=O)O[C@H](c3ccoc3)C[C@]21C | 4700 | 8780 | 580 | – | – | – | –
COC(=O)[C@@H]1C[C@H](OC(C)=O)C=C2[C@@]1(C)CC[C@H]1C(=O)O[C@H](c3ccoc3)C[C@]21C | 200 | 400 | 570 | – | – | – | –
COC(=O)[C@@H]1CC(=O)C=C2[C@@]1(C)CC[C@H]1C(=O)O[C@H](c3ccoc3)C[C@]21C | 700 | 3500 | 460 | – | – | – | –
